Laboratory results from US20190002492A1, “DERIVATIVES OF ALLOPR[…] OF EPIALLOPR[…] USES THEREOF FOR TREATING A NEUROPATHOLOGICAL CONDITION” (UNIVERSITE DE STRASBOURG, priority 2011, published 2019).
“Also recorded” adds a separate entry of the source. Where a name gives a salt, the structure may show the parent alone.

Legend:
[1] = system: SH-SY5Y human neuroblastomas; assay: MTT assay of cell viability and density: effect on cell proliferation; format: cell-based; design: key to Effect on cell proliferation (neural proliferative effect): −: no effect; +: low effect; ++: high effect; +++: very high effect; conditions: SH-SY5Y cultures
Experimental: (§1) The cellular model used to carry out the in vitro experiments is a line of human neuroblastomas called line SH-SY5Y.
(§2) The human neuroblastoma is a cultivated at 37° C. in a humidity saturated atmosphere, under 5% CO2 in a culture medium formed by DMEM with an added 10% (v/v) fetal calf serum, 5% (v/v) horse serum, 2 mM glutamax and 1% (v/v) of the penicillin/streptomycin mixture.
The cellular viability and the density (or number of SH-SY5Y cells/cm^2) were determined using the MTT reduction assay. The MTT technique is a colorimetric test that measures the reduction of the tetrazolium salt (3-[4,5-dimethylthiazol-2-yl]-2,5-diphenyl tetrazolium bromide) in formazan by the succinate dehydrogenase present in the mitochondria of the living cells. The formazan forms blue crystals. Thus, after solubilization of the crystals, the measurement of the absorbance at 595 nm makes it possible to obtain absorbency values directly proportional to the number of viable cells and the cell density in the culture boxes.
The effects of derivatives BR053, BR338, BR297 and BR351 on cell proliferation were evaluated by comparing the number of viable cells and the cell density in the control culture boxes, treated only with the culture medium described in paragraph A1 above, and the culture boxes exposed to the culture medium with the added BR053, BR338, BR297 or BR351 derivatives.

[2] = system: SH-SY5Y human neuroblastomas; assay: Neuroprotection against cell death caused by oxidizing stress (H2O2), MTT readout; format: cell-based; design: key to Neuroprotective effect against cell death caused by oxidizing stress: −: no effect; +: low effect; ++: high effect; +++: very high effect; conditions: H2O2 1 mM; for Neuroprotective effect against cell death caused by oxidizing stress: SH-SY5Y cultures, 24 or 48 hours, MTT; for Protection of human neuroblastomas from cell death caused by H2O2 (in words): SH-SY5Y
Experimental: as §1, §2
The human neuroblastomas were incubated with the culture medium alone or containing the chief inducing agent of oxidizing stress, hydrogen peroxide (H2O2), at various concentrations in order to determine the concentrations of H2O2 and the incubation times causing the death of a significant percentage of the cells. The neuroprotective properties of the BR053, BR338, BR297 and BR351 derivatives were determined by pretreating the SH-SY5Y cells with the culture medium alone or respectively containing the BR053, BR338, BR297 or BR351 derivative. After pretreatment, each of these categories of cells was integrated for 24 hours or 48 hours with the following solutions: (i) culture medium; (ii) culture medium containing only the BR053, BR338, BR297 or BR351 derivative; (iii) culture medium containing only H2O2 at a concentration of 1 mM, which causes a high percentage of cell death; (iv) culture medium containing both H2O2 (1 mM) and one of the BR053, BR338, BR297 or BR351 derivatives.
10 μl of a stock solution of tetrazolium, abbreviated MTT, at 3.6 mM was added in each well and the incubation continued in darkness for 5 h at 37° C. After cell lysis, spectrophotometer measurements at 595 nm were carried out to determine the survival and cell density under each of the conditions described above.

[3] = system: type A GABA channel receptors (GABAa-R); assay: Whole-cell patch-clamp, effect on GABA-induced ionic current; format: cell-based, human; conditions: 0.25 μM compound, GABA 10 μM in the recording pipette; for Effect on the type A GABA receptor channel or GABAa-R: whole cell patch-clamp
Experimental: The studies were conducted using an electrophysiological approach. The activity of the cells was recorded using the patch-clamp technique in its so-called whole cell configuration. The mediums used for the recordings have the following composition (in mM): NaCl ([…]), KCl (2), CaCl2 (1), MgCl2 (2), HEPES (10) for the medium bathing the cells and NaCl (132), KCl (2), CaCl2 (1), MgCl2 (2), TEA (15), HEPES (10) for the recording pipette, the pH was adjusted in both cases to 7.4 with NaOH. The GABA 10 μM was added into the recording pipette.
After producing a “gigaseal” (Planar patch clamp) between the cellular membrane and the tip of a pipette with an electrical resistance comprised between 4 and 7 MO, the ionic currents were measured using a patch-clamp amplifier (Axopatch B200, Axon Instruments, CA). The acquisition of the signal (acquisition frequency of 10 kHz) was done using an interface card (Digidata 1322A, Axon Instruments, CA) and the pClamp 8 software (Axons Instruments, CA).
The allopregnanolone and the BR053, BR338, BR297 and BR351 derivatives were solubilized in pure ethanol before being diluted in the medium to the desired concentration. The dilution factor was at least equal to 2×10^4, which makes the final concentration of ethanol in the recording solution remain below […] (a concentration not affecting the activity of the GABAa receptor).
Depending on the experiments, the allopregnanolone or the BR053, BR338, BR297 or BR351 derivatives, at the concentration of 0.25 μM, were either added in the recording pipette at the same time as the GABA, or applied to the cell by perfusion.
The application was done by gravity through a multi-path perfusion system made up of glass tubes each having an inner diameter of 1 mm. The selected path was placed across from the recorded cell at approximately 100 μm. The solution was changed by calibrated rotation of the tubes using a stepping motor thus placing the new selected path across from the cell. Synchronously with that rotation, the solenoid valve controlling the flow of the selected path was also opened and the preceding one closed.

Sprague-Dawley rats [4] = assay: Von Frey filament test, painful neuropathy caused by vincristine; format: in vivo, rat
Text: (§3) Adult male Sprague-Dawley rats weighing between 250 and 300 g were used. They came from the company Janvier (le Genest St. Isle, France). The care and handling of the animals were done in accordance with the guidelines from the Council of the European Community (86/609/EC) and in accordance with the ethical rules of the International Association for the Study of Pain. The protocol used to carry out the in vivo studies was subject to examination and authorization granted to Prof. Mensah-Nyagan's team by the Alsatian Department of the Veterinary Public Health Guide for the Care and Use of Laboratory Animals (Approval number 67-186). The rats were housed under standard conditions with a photoperiod of 12 h day/12 h night, with unlimited food and water. The animals spent one acclimatization week before being integrated into the experimental protocols. Each animal was examined daily to detect any signs of deterioration of its health condition, such as dramatic weight loss, a decrease in appetite during chemotherapy and pharmacological treatment.
(§4) Vincristine sulfate (VINC), purchased from Sigma-Aldrich (St. Louis, Mo., USA), was dissolved in a physiological saline solution (NaCl 0.9%) at 0.1 mg/ml and stored at 4° C. The saline solution (NaCl 0.9%) is used as excipient. The VINC is injected daily by intraperitoneal injection (i.p.), in 2 cycles of 5 days separated by 2 days off, at a concentration of 0.1 mg/kg/day. The control animals were injected by i.p. (1 ml/kg) with the excipient using a similar protocol.
(§5) The allopregnanolone in the derivatives according to the invention (BR053 and BR297) were diluted in a hydroxypropylcellulose (HPC) solution (0.3%) used as excipient. The curative treatment with allopregnanolone, BR053 or BR297 began 3 days after the vincristine cycles. Each of these compounds (allopregnanolone, BR053 or BR297) was administered by the intraperitoneal route at a dose of 4 mg/kg at a rate of one injection every 2 days. Thus, over the total duration of the in vivo experiments (14 days), each animal received 7 injections of excipient, allopregnanolone, BR053 or BR297, based on its group, at a dose of 4 mg/kg. The animals were sacrificed 24 hours after the last behavioral test (28th day) to remove tissues that will be used for later histology and electrophysiology studies.
(§6) The mechanical nociceptive sensitivity threshold was evaluated in rats placed in individual Plexiglas boxes (30×30×25 cm) mounted on a raised mesh support thereby allowing access to the surface or arch of the back feet. The presence of allodynia (exaggerated response following a normally […] stimulation) was measured using a series of calibrated von Frey filaments (1, 2, 4, 6, 8, 10, 15, 26, 100, 180 and 300 g; Stoelting, Wood Dale, Ill., USA), which were applied on the sole of the back foot of the animal with increasing force until the filament twisted. The filament was applied for a period of 1 to 2 seconds and the procedure was repeated 5 times at 4-5 second intervals. The withdrawal threshold of the foot was calculated by taking the average of […] repeated stimuli (in grams) that caused a reflex to withdraw the foot. Only vigorous and fast withdrawals of the foot were considered positive. In the experiments, the naïve animals never responded to the 4 g filament and responded 25-30% of the time to the 15 g filament.

Sprague-Dawley rats [5] = assay: Acetone test of thermal allodynia to cold, painful neuropathy caused by vincristine; format: in vivo, rat
Text: as §3, §4, §5
The thermal nociceptive sensitivity threshold to cold was measured in rats placed in individual Plexiglas boxes (30×30×25 cm) mounted on a raised mesh support so as to allow access to the sole of the animal's foot. […] Six measurements (3 per foot) were performed with a latency of 5 minutes between each stimulation. The average latency for withdrawal of the feet (in seconds) was calculated by averaging 6 measurements at each studied point in time. […]

Sprague-Dawley rats [6] = assay: Von Frey mechanical nociceptive sensitivity threshold in healthy animals not treated with vincristine; format: in vivo, rat; conditions: 4 mg/kg every 2 days for 2 weeks
Text: as §3, §5
as §6, with “In the experiments, the naïve animals never responded to the 4 g filament and responded 25-30% of the time to the 15 g filament.” left out

[7] = rats with vincristine neuropathy, 4 mg/kg i.p. every 2 days for 2 weeks

SMILES: CC(=O)[C@H]1CCC2C3CC[C@H]4C[C@H](O)CC[C@]4(C)C3CC(=O)[C@@]21C (stereo partly drawn) [BR338]
- Effect on cell proliferation (neural proliferative effect) [1]: ++
- Effect on the proliferation of human neuroblastomas (in words) [1]: high effectiveness
- Neuroprotective effect against cell death caused by oxidizing stress [2]: +
- Protection of human neuroblastomas from cell death caused by H2O2 (in words) [2]: capable of protecting human neuroblastomas from the cell death
- Effect on the type A GABA receptor channel or GABAa-R [3]: Positive allosteric effect

SMILES: C=CCO[C@@H]1CC[C@]2(C)C3CC[C@@]4(C)C(CC[C@@H]4C(C)=O)C3CC[C@H]2C1 (stereo partly drawn) [BR351]
- Effect on cell proliferation (neural proliferative effect) [1]: +++
- Effect on the proliferation of human neuroblastomas (in words) [1]: very high effectiveness
- Neuroprotective effect against cell death caused by oxidizing stress [2]: +++
- Protection of human neuroblastomas from cell death caused by H2O2 (in words) [2]: capable of protecting human neuroblastomas from the cell death
- Time until desensitization of the GABAa-R channel [3]: 1 min
- Effect on the type A GABA receptor channel or GABAa-R [3]: only temporarily reproduces the positive allosteric effect; also recorded: Temporary positive allosteric

SMILES: CC[C@]1(O)C[C@H]2CN(CCc3c([nH]c4ccccc34)[C@@](C(=O)OC)(c3cc4c(cc3OC)N(C=O)[C@H]3[C@@](O)(C(=O)OC)[C@H](OC(C)=O)[C@]5(CC)C=CCN6CC[C@]43[C@@H]65)C2)C1 [vincristine, Vincristine sulfate]
- Von Frey filament that causes more than 70% of responses (Sprague-Dawley rats [4]; rats after vincristine 0.1 mg/kg/day i.p., 2 cycles of 5 days, 80 g before treatment): 20 g
- Responses to the 15 g filament (mechanical hyperalgesia) (Sprague-Dawley rats [4]; rats after vincristine chemotherapy, 30% before): ~70%
- Responses to the 4 g filament (mechanical allodynia) (Sprague-Dawley rats [4]; rats after vincristine chemotherapy, no response before treatment): more than 30%
- Latency for withdrawal of the foot, acetone test (Sprague-Dawley rats [5]; rats after vincristine chemotherapy, 20 seconds before): 11 s

SMILES: CC(=O)[C@H]1CCC2C3CC[C@H]4C[C@H](O)CC[C@]4(C)C3CC[C@@]21C (stereo partly drawn) [Allopregnanolone, reference compound]
- Anti-nociceptive effect in healthy animals (Sprague-Dawley rats [6]): significant anti-nociceptive effect
- Mechanical nociceptive sensitivity threshold after treatment (Sprague-Dawley rats [6]; 80 g before): 200 g
- Effect on mechanical allodynia and mechanical hyperalgesia (Sprague-Dawley rats [4]; [7]): eliminates the symptoms
- Effect on thermal allodynia to cold (Sprague-Dawley rats [5]; [7]): eliminates the symptoms
- Effect on the type A GABA receptor channel or GABAa-R [3]: Positive allosteric effect
- Effect on the type A GABA receptor channel or GABAa-R ([3]; listed as allopregnanolone): positive allosteric effect
